Measurements taken from PubChem BioAssay (NCI).
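Briefly, cells in 96-well plates were exposed to five compound concentrations for 48 h, and endpoints were estimated by linear interpolation. At the GI50, growth is halved. The concentration for full growth arrest is given as TGI.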

Legend:
Experiment in all cases: NCI anticancer screen, dose series, 48 h
786-0 renal = system: 786-0 renal
A498 renal = system: A498 renal
A549 NSCLC = system: A549 NSCLC
ACHN renal = system: ACHN renal
BT-549 breast = system: BT-549 breast
CAKI-1 renal = system: CAKI-1 renal
CCRF-CEM leukemia = system: CCRF-CEM leukemia
COLO 205 colon = system: COLO 205 colon
DU-145 prostate = system: DU-145 prostate
EKVX NSCLC = system: EKVX NSCLC
HCC-2998 colon = system: HCC-2998 colon
HCT-116 colon = system: HCT-116 colon
HCT-15 colon = system: HCT-15 colon
HL-60(TB) leukemia = system: HL-60(TB) leukemia
HOP-62 NSCLC = system: HOP-62 NSCLC
HOP-92 NSCLC = system: HOP-92 NSCLC
HS 578T breast = system: HS 578T breast
HT29 colon = system: HT29 colon
IGROV1 ovarian = system: IGROV1 ovarian
K-562 leukemia = system: K-562 leukemia
KM12 colon = system: KM12 colon
LOX IMVI melanoma = system: LOX IMVI melanoma
M14 melanoma = system: M14 melanoma
MALME-3M melanoma = system: MALME-3M melanoma
MCF7 breast = system: MCF7 breast
MDA-MB-231 breast = system: MDA-MB-231 breast
MDA-MB-435 = system: MDA-MB-435
MOLT-4 leukemia = system: MOLT-4 leukemia
NCI-H23 lung = system: NCI-H23 lung
NCI-H460 lung = system: NCI-H460 lung
NCI-H522 lung = system: NCI-H522 lung
NCI/ADR-RES ovarian = system: NCI/ADR-RES ovarian
OVCAR-3 ovarian = system: OVCAR-3 ovarian
OVCAR-4 ovarian = system: OVCAR-4 ovarian
OVCAR-5 ovarian = system: OVCAR-5 ovarian
OVCAR-8 ovarian = system: OVCAR-8 ovarian
PC-3 prostate = system: PC-3 prostate
RPMI-8226 leukemia = system: RPMI-8226 leukemia
RXF 393 renal = system: RXF 393 renal
SF-268 CNS = system: SF-268 CNS
SF-295 CNS = system: SF-295 CNS
SF-539 CNS = system: SF-539 CNS
SK-MEL-2 melanoma = system: SK-MEL-2 melanoma
SK-MEL-28 melanoma = system: SK-MEL-28 melanoma
SK-MEL-5 melanoma = system: SK-MEL-5 melanoma
SK-OV-3 ovarian = system: SK-OV-3 ovarian
SN12C renal = system: SN12C renal
SNB-19 CNS = system: SNB-19 CNS
SNB-75 CNS = system: SNB-75 CNS
SR leukemia = system: SR leukemia
SW-620 colon = system: SW-620 colon
T-47D breast = system: T-47D breast
TK-10 renal = system: TK-10 renal
U251 CNS = system: U251 CNS
UACC-257 melanoma = system: UACC-257 melanoma
UACC-62 melanoma = system: UACC-62 melanoma
UO-31 renal = system: UO-31 renal

## CCN1[C@@H](C(=O)NC23CCC(C(=O)O)(CC2)CC3)[C@H](c2cccc(Cl)c2F)[C@]2(C(=O)Nc3cc(Cl)ccc32)C12CCCCC2
786-0 renal
  GI50: 2.94 µM
  TGI: 12.1 µM
A498 renal
  GI50: 0.281 µM
  TGI: 3.37 µM
A549 NSCLC
  GI50: 0.177 µM
  TGI: 7.03 µM
ACHN renal
  GI50: 0.0878 µM
  TGI: 3.77 µM
BT-549 breast
  GI50: 2.28 µM
  TGI: 5.54 µM
CAKI-1 renal
  GI50: < 0.0149 µM
  TGI: 0.817 µM
CCRF-CEM leukemia
  GI50: 2.98 µM
  TGI: 13.2 µM
COLO 205 colon
  GI50: 3.02 µM
  TGI: 10.6 µM
DU-145 prostate
  GI50: 5.47 µM
  TGI: 18.5 µM
EKVX NSCLC
  GI50: 2.53 µM
  TGI: 13.7 µM
HCC-2998 colon
  GI50: 2.39 µM
  TGI: 6.89 µM
HCT-116 colon
  GI50: 0.104 µM
  TGI: 3.11 µM
HCT-15 colon
  GI50: 2.57 µM
  TGI: 12.5 µM
HL-60(TB) leukemia
  GI50: 1.96 µM
  TGI: 6 µM
HOP-62 NSCLC
  GI50: 3.19 µM
  TGI: 13.6 µM
HOP-92 NSCLC
  GI50: 2.15 µM
  TGI: 6.45 µM
HS 578T breast
  GI50: 2.05 µM
  TGI: 10.1 µM
HT29 colon
  GI50: 3.06 µM
  TGI: 14.8 µM
IGROV1 ovarian
  GI50: 0.99 µM
  TGI: 15.5 µM
K-562 leukemia
  GI50: 2.98 µM
  TGI: > 100 µM
KM12 colon
  GI50: 3.34 µM
  TGI: 12.7 µM
LOX IMVI melanoma
  GI50: 0.259 µM
  TGI: 4.88 µM
M14 melanoma
  GI50: 3.22 µM
  TGI: 13.1 µM
MALME-3M melanoma
  GI50: 0.0655 µM
  TGI: 1.18 µM
MCF7 breast
  GI50: 0.0523 µM
  TGI: 3.97 µM
MDA-MB-231 breast
  GI50: 5.85 µM
  TGI: 27.4 µM
MDA-MB-435
  GI50: 2.92 µM
  TGI: 10.7 µM
MOLT-4 leukemia
  GI50: 0.164 µM
  TGI: > 22.9 µM
NCI-H23 lung
  GI50: 3.53 µM
  TGI: 17.4 µM
NCI-H460 lung
  GI50: 0.0909 µM
  TGI: 1.45 µM
NCI-H522 lung
  GI50: 2.62 µM
  TGI: 8.24 µM
NCI/ADR-RES ovarian
  GI50: 5.65 µM
  TGI: 42.5 µM
OVCAR-3 ovarian
  GI50: 2.53 µM
  TGI: 7.74 µM
OVCAR-4 ovarian
  GI50: 3.37 µM
  TGI: 15.5 µM
OVCAR-5 ovarian
  GI50: 3.74 µM
  TGI: 17.8 µM
OVCAR-8 ovarian
  GI50: 3.84 µM
  TGI: 18.7 µM
PC-3 prostate
  GI50: 2.42 µM
  TGI: 9.21 µM
RPMI-8226 leukemia
  GI50: 2.33 µM
  TGI: 6.61 µM
RXF 393 renal
  GI50: 1.99 µM
  TGI: 5.69 µM
SF-268 CNS
  GI50: 3.1 µM
  TGI: 15.1 µM
SF-295 CNS
  GI50: 2.21 µM
  TGI: 7.29 µM
SF-539 CNS
  GI50: 2.78 µM
  TGI: 10.6 µM
SK-MEL-2 melanoma
  GI50: 2.02 µM
  TGI: 5.18 µM
SK-MEL-28 melanoma
  GI50: 3.71 µM
  TGI: 14 µM
SK-MEL-5 melanoma
  GI50: 1.39 µM
  TGI: 2.75 µM
SK-OV-3 ovarian
  GI50: 3.03 µM
  TGI: 12 µM
SN12C renal
  GI50: 3.67 µM
  TGI: 19.4 µM
SNB-19 CNS
  GI50: 3.56 µM
  TGI: 15.2 µM
SNB-75 CNS
  GI50: 1.91 µM
  TGI: 14.8 µM
SR leukemia
  GI50: 0.0146 µM
  TGI: 4.72 µM
SW-620 colon
  GI50: 3.92 µM
  TGI: 17.1 µM
T-47D breast
  GI50: 3.13 µM
  TGI: 19.4 µM
TK-10 renal
  GI50: 3.05 µM
  TGI: 16.2 µM
U251 CNS
  GI50: 3.29 µM
  TGI: 15.5 µM
UACC-257 melanoma
  GI50: 0.228 µM
  TGI: 1.86 µM
UACC-62 melanoma
  GI50: 0.0372 µM
  TGI: 2.24 µM
UO-31 renal
  GI50: 0.0779 µM
  TGI: 3.6 µM
